Laboratory results published in US20110183336A1, “Method to Predict Responsiveness of Breast Cancer to Polyamine-Type Chemotherapy” (THE REGENTS OF THE UNIVERSITY OF CALIFORNIA, priority 2007, published 2011).

Columns and labels:
Format in all cases: cell-based, human
T47D cells = assay: Caspase Glo 3/7 assay (apoptosis); details: T47D (FIG. 5); 0.3, 10 and 300 uM
Experimental: FIGS. 5A and 5B. Effect of CGC-11047 on T47D cells with respect to cell cycle and apoptosis. In FIG. 5A, cells were treated for 72 hours with 0, 0.3, 10, or 100 μM CGC-11047. Shown are percentage of the cell population is G0-G1, S, or G2-M phase of cell growth. In FIG. 5B, cells were treated for […], 48, or 72 hours with 0.3, 10, or 300 μM CGC-11047. Shown is the caspase activity (apoptosis) of treated cells within each condition compared to untreated controls.
Caspase Glo assay: Apoptosis was measured using the Promega Caspase Glo 3/7 assay (Promega, Madison, Wis.). Lyophilized pellet was eluted in solvent to make working Caspase Glo reagent. After incubation of cells with CGC-11047 at specified concentrations for 24, 48, and 72 hours, 50 ul of Caspase Glo reagent was added to the wells. After an incubation time of 1 hour, luminescence was measured using a luminometer.
Select sensitive cell lines were treated with CGC-11047 at 0.3, 10 and 300 uM. BrdU incorporation was measured and cell cycle distribution was analyzed at 48 and 72 hrs. Apoptosis was measured using the Promega Caspase Glo 3/7 assay.

HCC1500 = assay: Cell growth inhibition assay (Cell Titer Glo); details: HCC1500, Basal B, 72 h
Experimental: (§1) Cell culture: Breast cell lines were obtained from the ATCC and from collections developed in the laboratories of Drs. Steve Ethier and Adi Gazdar.
(§2) Cell growth inhibition assay and data analysis: Cells were plated at proper density in 96-well plates such that they would remain in log growth at the end of assay time. The cells were allowed to attach overnight before being exposed to CGC-11047 for 72 h. Drugs were dissolved in water as 100 mM stock. For the dose response study, a set of 9 doses from 5×10^−3 to 1.3×10^−8 M (final concentration) in 1:5 serial dilution were added in triplicate wells. The final DMSO concentration in the treated well was 0.3% or less. The cell growth was determined using Cell Titer Glo (CTG) assay (CellTiter-Glo Luminescent Cell Viability Assay, Promega, Madison, Wis.), with slight modification form manufacturer's protocol, at day 0 (time when drug was added) and at day 3 of drug exposure. Briefly, CTG reagent was diluted with PBS (1:1, volume: volume) and the culture media was removed from the 96-well plate prior to adding 50 μl per well of the diluted CTG reagent. Luminescence from the assay was recorded using BIO-TEK FLx800.
(§3) Data calculations were made according to the method described by the NCI/NIH DTP Human Tumor Cell Line Screen Process (http://dtp.nci.nih.gov/branches/btb/ivclsp.html) and as described previously (Monks, A et al., JNCI 83:757-766, 1991). The percent growth curve is calculated as [(T−T0)/(C−T0)]×100, where T0 is the cell count at day 0, C is the vehicle control (e.g. 0.3% DMSO without drug) cell count at day 3, and T is the cell count at the test concentration. The GI50 and TGI value are determined as the drug concentration that results in a 50% and 0% growth at 72 h drug exposure. LC50 is calculated as [(T−T0)/T0]×100=−50, when T<T0.

MCF10F = assay: Cell growth inhibition assay (Cell Titer Glo); details: N, Basal A, 72 h
Experimental: as §1, §2, §3

HCC1419 = assay: Cell growth inhibition assay (Cell Titer Glo); details: HCC1419, Luminal, 72 h
Experimental: as §1, §2, §3

SUM159PT = assay: Cell growth inhibition assay (Cell Titer Glo); details: Basal B, 72 h
Experimental: as §1, §2, §3

HCC1937 = assay: Cell growth inhibition assay (Cell Titer Glo); details: HCC1937, Basal A, 72 h
Experimental: as §1, §2, §3

MDAMB361 = assay: Cell growth inhibition assay (Cell Titer Glo); details: MDAMB361, Luminal, 72 h
Experimental: as §1, §2, §3

SUM1315MO2 = assay: Cell growth inhibition assay (Cell Titer Glo); details: SUM1315MO2, Basal B, 72 h
Experimental: as §1, §2, §3

AU565 = assay: Cell growth inhibition assay (Cell Titer Glo); details: AU565, Luminal, 72 h
Experimental: as §1, §2, §3

S1 = assay: Cell growth inhibition assay (Cell Titer Glo); details: S1, HMEC, 72 h
Experimental: as §1, §2, §3

MCF10A = assay: Cell growth inhibition assay (Cell Titer Glo); details: N, Basal B, 72 h
Experimental: as §1, §2, §3

HCC2185 = assay: Cell growth inhibition assay (Cell Titer Glo); details: HCC2185, Luminal, 72 h
Experimental: as §1, §2, §3

BT549 = assay: Cell growth inhibition assay (Cell Titer Glo); details: BT549, Basal B, 72 h
Experimental: as §1, §2, §3

HCC1954 = assay: Cell growth inhibition assay (Cell Titer Glo); details: HCC1954, Basal A, 72 h
Experimental: as §1, §2, §3

Compound: CCNCCCNC/C=C\CNCCCNCC [CGC-11047]
- apoptosis (caspase 3/7 activity) (T47D cells): significant accumulation of apoptosis
- TGI (HCC1500): 600 µM
- GI50 (HCC1500; Homo sapiens): 20 µM
- GI50 (MCF10F; Homo sapiens, MCF-10F): 100 µM
- TGI (MCF10F): 1100 µM
- TGI (HCC1419): 31 µM
- GI50 (HCC1419; Homo sapiens): 7 µM
- TGI (SUM159PT): 3000 µM
- GI50 (SUM159PT; Homo sapiens, SUM-159-PT): 200 µM
- TGI (HCC1937): 300 µM
- GI50 (HCC1937; Homo sapiens): 0.8 µM
- GI50 (MDAMB361; Homo sapiens, MDA-MB-361): 600 µM
- TGI (MDAMB361): 2000 µM
- GI50 (SUM1315MO2; Homo sapiens): 700 µM
- TGI (SUM1315MO2): 1300 µM
- TGI (AU565): >30 µM
- GI50 (AU565; Homo sapiens): 40 µM
- GI50 (S1; Homo sapiens): 0.8 µM
- TGI (S1): 3000 µM
- GI50 (MCF10A; Homo sapiens, MCF-10A): 200 µM
- TGI (MCF10A): 3300 µM
- TGI (HCC2185): 500 µM
- GI50 (HCC2185; Homo sapiens): 90 µM
- TGI (BT549): 1300 µM
- GI50 (BT549; Homo sapiens, BT-549): 1 µM
- TGI (HCC1954): 8 µM
- GI50 (HCC1954; Homo sapiens): 1 µM
